Tested on: LG0703-F498-PDC complex spheroid growth
Test: Anticancer human tumor LG0703-F498-PDC patient-derived lung adenocarcinoma cell line growth inhibition [AhR]
Details: for IC50: curve of first compound; for viability, T/C: stronger effect = lower value
Outline: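 Spheroids combined tumor cells with HUVEC endothelial cells and human MSCs as stroma. AhR antagonists were paired with standard or investigational drugs, each dosed in half-log steps down from near clinical Cmax, or from 10 microM where Cmax was unknown.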

[1] = second compound 0.1 µM, first compound 0.0316 µM
[2] = second compound 0.1 µM, first compound 0.1 µM
[3] = second compound 0.1 µM, first compound 0.316 µM
[4] = second compound 0.1 µM, first compound 1 µM
[5] = second compound 0.1 µM, first compound 3.16 µM
[6] = second compound 0.1 µM, first compound 10 µM
[7] = second compound 0.316 µM, first compound 0.0316 µM
[8] = second compound 0.316 µM, first compound 0.1 µM
[9] = second compound 0.316 µM, first compound 0.316 µM
[10] = second compound 0.316 µM, first compound 1 µM
[11] = second compound 0.316 µM, first compound 3.16 µM
[12] = second compound 0.316 µM, first compound 10 µM
[13] = second compound 1 µM, first compound 0.0316 µM
[14] = second compound 1 µM, first compound 0.1 µM
[15] = second compound 1 µM, first compound 0.316 µM
[16] = second compound 1 µM, first compound 1 µM
[17] = second compound 1 µM, first compound 3.16 µM
[18] = second compound 1 µM, first compound 10 µM
[19] = second compound 3.16 µM, first compound 0.0316 µM
[20] = second compound 3.16 µM, first compound 0.1 µM
[21] = second compound 3.16 µM, first compound 0.316 µM
[22] = second compound 3.16 µM, first compound 1 µM
[23] = second compound 3.16 µM, first compound 3.16 µM
[24] = second compound 3.16 µM, first compound 10 µM
[25] = second compound 10 µM, first compound 0.0316 µM
[26] = second compound 10 µM, first compound 0.1 µM
[27] = second compound 10 µM, first compound 0.316 µM
[28] = second compound 10 µM, first compound 1 µM
[29] = second compound 10 µM, first compound 3.16 µM
[30] = second compound 10 µM, first compound 10 µM
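Also: luminescence taken as a proxy for viable cell amount.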
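For viability, T/C in this document: percent of DMSO vehicle control where 100% means growth equal to vehicle.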

Nc1ccn(C2OC(CO)C(O)C2(F)F)c(=O)n1 (stereo not given) + CC(CO)NC(=O)c1cc(-c2ccc(Cl)cc2)nn(-c2cnn(C)c2)c1=O
IC50 (second compound 0.1 µM): < 31.6 nM
IC50 (second compound 0.316 µM): < 31.6 nM
IC50 (second compound 1 µM): < 31.6 nM
IC50 (second compound 3.16 µM): < 31.6 nM
IC50 (second compound 10 µM): < 31.6 nM
viability, T/C [1]: 43.6%
viability, T/C [2]: 43.4%
viability, T/C [3]: 39.1%
viability, T/C [4]: 38.8%
viability, T/C [5]: 35.7%
viability, T/C [6]: 26.6%
viability, T/C [7]: 43.3%
viability, T/C [8]: 41.7%
viability, T/C [9]: 41.1%
viability, T/C [10]: 38.3%
viability, T/C [11]: 28.4%
viability, T/C [12]: 27.3%
viability, T/C [13]: 46.7%
viability, T/C [14]: 47.5%
viability, T/C [15]: 39.9%
viability, T/C [16]: 37.9%
viability, T/C [17]: 31%
viability, T/C [18]: 27.1%
viability, T/C [19]: 42.8%
viability, T/C [20]: 41.9%
viability, T/C [21]: 41.9%
viability, T/C [22]: 39.2%
viability, T/C [23]: 29.2%
viability, T/C [24]: 23.9%
viability, T/C [25]: 40%
viability, T/C [26]: 40.5%
viability, T/C [27]: 45%
viability, T/C [28]: 34.5%
viability, T/C [29]: 27.2%
viability, T/C [30]: 23.7%

Nc1ccccc1NC(=O)c1ccc(CNC(=O)OCc2cccnc2)cc1 + Cc1ccccc1N=Nc1ccc(NC(=O)c2ccnn2C)c(C)c1
IC50 (second compound 0.1 µM): 1140 nM
IC50 (second compound 0.316 µM): 895 nM
IC50 (second compound 1 µM): 1080 nM
IC50 (second compound 3.16 µM): 940 nM
IC50 (second compound 10 µM): 1390 nM
viability, T/C [1]: 89.8%
viability, T/C [2]: 95.3%
viability, T/C [3]: 88.6%
viability, T/C [4]: 54%
viability, T/C [5]: 13.7%
viability, T/C [6]: 1.74%
viability, T/C [7]: 103%
viability, T/C [8]: 93.3%
viability, T/C [9]: 78.7%
viability, T/C [10]: 48.4%
viability, T/C [11]: 14.3%
viability, T/C [12]: 1.58%
viability, T/C [13]: 87.8%
viability, T/C [14]: 78.3%
viability, T/C [15]: 77.3%
viability, T/C [16]: 53%
viability, T/C [17]: 15.2%
viability, T/C [18]: 2.52%
viability, T/C [19]: 73.9%
viability, T/C [20]: 75.5%
viability, T/C [21]: 69.3%
viability, T/C [22]: 48%
viability, T/C [23]: 20%
viability, T/C [24]: 3.32%
viability, T/C [25]: 76.8%
viability, T/C [26]: 88.6%
viability, T/C [27]: 79.4%
viability, T/C [28]: 54.3%
viability, T/C [29]: 32.1%
viability, T/C [30]: 10.9%

CC(C)c1c(-c2ccccc2)nc2c(C#N)c[nH]n2c1=O + Cc1ccccc1N=Nc1ccc(NC(=O)c2ccnn2C)c(C)c1
IC50 (second compound 0.1 µM): > 10000 nM
IC50 (second compound 0.316 µM): > 10000 nM
IC50 (second compound 1 µM): > 10000 nM
IC50 (second compound 3.16 µM): > 10000 nM
IC50 (second compound 10 µM): > 10000 nM
viability, T/C [1]: 95.3%
viability, T/C [2]: 88.1%
viability, T/C [3]: 94.9%
viability, T/C [4]: 98.5%
viability, T/C [5]: 112%
viability, T/C [6]: 102%
viability, T/C [7]: 97.4%
viability, T/C [8]: 85.6%
viability, T/C [9]: 85.5%
viability, T/C [10]: 78.8%
viability, T/C [11]: 95.9%
viability, T/C [12]: 92.1%
viability, T/C [13]: 88.1%
viability, T/C [14]: 90.4%
viability, T/C [15]: 94.7%
viability, T/C [16]: 89.5%
viability, T/C [17]: 87.6%
viability, T/C [18]: 84.1%
viability, T/C [19]: 78%
viability, T/C [20]: 79%
viability, T/C [21]: 84.5%
viability, T/C [22]: 77.6%
viability, T/C [23]: 81.5%
viability, T/C [24]: 86.8%
viability, T/C [25]: 86.3%
viability, T/C [26]: 75.6%
viability, T/C [27]: 67.9%
viability, T/C [28]: 82.8%
viability, T/C [29]: 81.7%
viability, T/C [30]: 79.3%

— PubChem BioAssay AID1919013 (Molecular Pharmacology Branch, DTP, NCI, 2023)
